Test results from US7834164B2 (priority 2006, dated 2010).
Bridge positions count the residues as written; N and C are the ends. Square brackets hold non-standard residues; d marks the D form. Ends that are not written are not given here. Peptide text beside a SMILES is read from it. mPEG 20 kDa = 20 kDa monomethoxy-PEG attached via aldehyde at the N-terminus; 1Nal = N[C@@H](Cc1cccc2ccccc12)C(=O)O; hArg = N=C(N)NCCCC[C@H](N)C(=O)O

Tests used:
human Kv1.3 [1] = target: T1, human Kv1.3 (Homo sapiens, UniProt P22001); type: cell-based; set-up: host or cells: HEK293
T1 sequence (P22001 whole entry): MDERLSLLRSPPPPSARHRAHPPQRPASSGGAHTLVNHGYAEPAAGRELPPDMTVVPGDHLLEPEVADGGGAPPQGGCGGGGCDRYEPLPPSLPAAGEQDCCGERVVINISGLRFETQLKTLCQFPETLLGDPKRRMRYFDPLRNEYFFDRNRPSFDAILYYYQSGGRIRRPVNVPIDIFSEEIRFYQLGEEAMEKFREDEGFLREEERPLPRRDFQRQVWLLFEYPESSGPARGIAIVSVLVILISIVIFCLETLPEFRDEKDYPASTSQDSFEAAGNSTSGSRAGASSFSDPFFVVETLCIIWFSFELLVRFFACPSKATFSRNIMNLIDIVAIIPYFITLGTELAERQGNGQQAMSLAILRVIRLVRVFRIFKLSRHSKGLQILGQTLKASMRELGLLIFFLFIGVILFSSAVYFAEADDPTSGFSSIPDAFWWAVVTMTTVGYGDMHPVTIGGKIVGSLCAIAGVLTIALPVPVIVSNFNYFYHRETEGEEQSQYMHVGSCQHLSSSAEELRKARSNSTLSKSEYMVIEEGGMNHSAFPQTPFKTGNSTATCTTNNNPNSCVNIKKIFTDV

human Kv1.1 = target: T2, human Kv1.1 (Homo sapiens, UniProt Q09470); type: cell-based; conditions: read-out: Kv1.1 Analogue Activity (IC50)
T2 construct: expressed in transfected cells; host or cells: HEK293
T2 sequence (Q09470 whole entry): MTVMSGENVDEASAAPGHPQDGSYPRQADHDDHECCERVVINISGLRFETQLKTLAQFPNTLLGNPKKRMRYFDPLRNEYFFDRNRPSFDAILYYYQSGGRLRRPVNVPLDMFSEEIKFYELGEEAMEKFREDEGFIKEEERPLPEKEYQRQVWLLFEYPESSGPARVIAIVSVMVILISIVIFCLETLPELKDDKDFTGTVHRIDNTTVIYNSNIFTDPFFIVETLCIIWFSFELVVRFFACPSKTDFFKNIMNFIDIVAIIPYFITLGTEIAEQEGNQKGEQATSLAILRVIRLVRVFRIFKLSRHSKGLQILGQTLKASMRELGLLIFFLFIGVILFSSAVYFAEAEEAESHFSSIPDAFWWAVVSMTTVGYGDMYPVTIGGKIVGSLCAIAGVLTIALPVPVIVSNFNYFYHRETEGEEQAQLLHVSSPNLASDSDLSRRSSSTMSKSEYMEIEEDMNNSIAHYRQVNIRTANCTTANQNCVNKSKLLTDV

[2] = rat, in vivo, iv, 1 mg/kg
[3] = test system: IFNγ production from human PBMCs; type: cell-based
[4] = test system: IL-2R on T cells in human whole blood; type: cell-based
[5] = test system: AT-EAE model of multiple sclerosis; set-up: species or system Lewis rats; conditions: rat, in vivo, sc
[6] = test system: CD40L on T cells in human whole blood; type: cell-based
[7] = test system: IFNγ production from human PBMCs; type: cell-based; remark: listed apart in the source
[8] = test system: IL-2 production in human whole blood; type: cell-based
[9] = test system: IFN-g production in human whole blood; type: cell-based
human Kv1.3 [10] = target: T1, human Kv1.3; type: binding; set-up: expressed in transfected cells
[11] = test system: T cell proliferation in human PBMCs; assay: T cell proliferation (3H-thymidine incorporation), anti-CD3/anti-CD28 stimulated PBMCs; type: cell-based; conditions: aCD3/aCD28 stimulated PBMCs from two normal donors
Excerpt: Inhibition of T cell proliferation following anti-CD3 and anti-CD28 antibody stimulation of PBMCs. PBMC's were previously isolated from normal human donor Leukophoresis packs, purified by density gradient centrifugation (Ficoll Hypaque), cryopreserved in CPZ Cryopreservation Medium Complete (INCELL, MCPZF-100 plus 10% DMSO final). PBMC's were thawed (95% viability), washed, and seeded at 2×10^5 cells per well in culture medium (RPMI medium 1640; GIBCO) supplemented with 10% fetal calf serum, 100 U/ml penicillin, […] streptomycin, 2 mM L-glutamine, 100 μM non-essential amino acids, and 20 μM 2-ME) in 96-well flat-bottom tissue culture plates. Cells were pre-incubated with either anti-human CD32 (FcyRII) blocking antibody (per manufacturers instructions EASY SEP Human Biotin Selection Kit #18553, StemCell Technologies Vancouver, BC) or Fc-L10-ShK (100 nM-0.001 nM final) for 45 min. Fc-L10-ShK (100 nM-0.001 nM final) was then added to the cells containing anti-human CD32 blocking antibody while medium was added to the cells containing Fc-L10-ShK. Both sets were incubated for an additional 45 min before stimulating for 48 hr with aCD3/aCD28 (0.2 ng/ml and 100 ng/ml, respectively). Final assay volume was 200 ul. […] Cells were then harvested onto glass fiber filters and radioactivity was measured in a B-scintillation counter.

human Kv1.3 [12] = target: T1, human Kv1.3; assay: Immunohistochemistry, binding to HEK 293 cells overexpressing human Kv1.3; set-up: expressed in transfected cells; conditions: 5 μg/ml, fixed cells, confocal microscopy
Protocol: Immunohistochemistry analysis of Fc-L10-ShK[1-35] binding to HEK 293 cells overexpressing human Kv1.3. HEK 293 cells overexpressing human Kv1.3 (HEK Kv1.3) were obtained from BioFocus plc (Cambridge, UK) and maintained per manufacturer's recommendation. The parental HEK 293 cell line was used as a control. Cells were plated on Poly-D-Lysine 24 well plates (#35-4414; Becton-Dickinson, Bedford, Mass.) and allowed to grow to approximately 70% confluence. HEK KV1.3 were plated at 0.5×10e5 cells/well in 1 ml/well of medium. HEK 293 cells were plated at a density of 1.5×10e5 cells/well in 1 ml/well of medium. Before staining, cells were fixed with formalin (Sigma HT50-1-1 Formalin solution, diluted 1:1 with PBS/0.5% BSA before use) by removing cell growth medium, adding 0.2 ml/well formalin solution and incubating at room temperature for ten minutes. Cells were stained by incubating with 0.2 ml/well of 5 μg/ml Fc-L10-ShK[1-35] in PBS/BSA for 30′ at room temperature. Fc-L10-ShK[1-35] was aspirated and then the cells were washed one time with PBS/0.5% BSA. Detection antibody (Goat F(ab)2 anti-human IgG-phycoerythrin; Southern Biotech Associates, Birmingham, Ala.) was added to the wells at 5 μg/ml in PBS/0.5% BSA and incubated for 30′ at room temperature. Wash cells once with PBS/0.5% BSA and examine using confocal microscopy (LSM 510 Meta Confocal Microscope; Carl Zeiss AG, Germany). […]

Compound	thapsigargin-induced upregulation of the IL-2R on T cells in human whole blood (in words) [4]	thapsigargin-induced upregulation of CD40L on T cells in human whole blood (in words) [6]	thapsigargin-induced IL-2 production in human whole blood (in words) [8]	thapsigargin-induced IFN-g production in human whole blood (in words) [9]	hKv1.1/hKv1.3 (human Kv1.3 [1])	other results
N-Terminally PEGylated-Des-Arg1-ShK: folded ShK[2-35] N-terminally mono-PEGylated with 20 kDa MeO-PEG-aldehyde by reductive amination ({mPEG 20 kDa}-SCIDTIPKSRCTAFQCKHSMKYRLSFCRKTCGTC; also: folded, disulfides present but pairing not given here)						block of human Kv1.3 current (in words) (human Kv1.3 [1]): active in blocking human Kv1.3
CC[C@H](C)[C@@H]1NC(=O)[C@H](Cc2cccc3ccccc23)NC(=O)[C@@H](NC(=O)[C@H](CCCCN)NC(=O)[C@@H](NC(=O)[C@H](CC(N)=O)NC(=O)[C@@H](NC(=O)[C@@H](NC(=O)[C@@H](NC(=O)CN)C(C)C)[C@@H](C)CC)[C@@H](C)CC)C(C)C)CSSC[C@@H]2NC(=O)[C@H](CCCCN)NC(=O)CNC(=O)[C@H](Cc3ccccc3)NC(=O)[C@H](CCCNC(=N)N)NC(=O)[C@H](CCSC)NC(=O)CNC(=O)[C@H](C)NC(=O)[C@H](CCCCN)NC(=O)[C@H](CCCCN)NC(=O)[C@@H]3CSSC[C@@H](C(=O)N[C@H](C(=O)N4CCC[C@H]4C(=O)N[C@@H](CCCCN)C(=O)O)[C@@H](C)O)NC(=O)[C@H](Cc4c[nH]cn4)NC(=O)[C@H](CSSC[C@H](NC(=O)[C@H](CCC(N)=O)NC(=O)[C@H](CCCNC(=N)N)NC(=O)[C@H](CO)NC1=O)C(=O)N[C@@H](CC(C)C)C(=O)N[C@@H](CCC(=O)O)C(=O)N1CCC[C@H]1C(=O)N3)NC(=O)[C@H](CCCCN)NC(=O)CNC(=O)[C@H](CC(N)=O)NC(=O)[C@H](CCSC)NC2=O [K9Nal] (H-GVIINVKC[1Nal]ISRQCLEPCKKAGMRFGKCMNGKCHCTPK-OH; disulfide 8-28, 14-33, 18-35)						IC50 (human Kv1.1): 292 pM
CC[C@H](C)[C@@H]1NC(=O)[C@@H](NC(=O)[C@H](CO)NC(=O)[C@@H](N)CCCNC(=N)N)CSSC[C@@H](C(=O)O)NC(=O)[C@H]([C@@H](C)O)NC(=O)CNC(=O)[C@@H]2CSSC[C@@H]3NC(=O)[C@H](CCC(N)=O)NC(=O)[C@H](Cc4ccccc4)NC(=O)[C@H](C)NC(=O)[C@H]([C@@H](C)O)NC(=O)[C@H](CSSC[C@H](NC(=O)[C@H](Cc4ccccc4)NC(=O)[C@H](CO)NC(=O)[C@H](CC(C)C)NC(=O)[C@H](CCCNC(=N)N)NC(=O)[C@H](Cc4ccc(O)cc4)NC(=O)[C@H](CCCCN)NC(=O)[C@H](CCSC)NC(=O)[C@H](CO)NC(=O)[C@H](Cc4cnc[nH]4)NC(=O)[C@H](CCCCN)NC3=O)C(=O)N[C@@H](CCCNC(=N)N)C(=O)N[C@@H](CCCCN)C(=O)N[C@@H]([C@@H](C)O)C(=O)N2)NC(=O)[C@H](CCCNC(=N)N)NC(=O)[C@H](CO)NC(=O)[C@H](CCCCN)NC(=O)[C@@H]2CCCN2C(=O)[C@H]([C@@H](C)CC)NC(=O)[C@H]([C@@H](C)O)NC(=O)[C@H](CC(=O)O)NC1=O [ShK]	suppressed	suppressed	suppressed	suppressed		time of significant suppression of Kv1.3 current (<70 POC) by 5% serum Test solutions [2]: ≤ 1 h; extent of inhibition of IFNγ production [3]: partial inhibition; average body weight lost [5]: 30 g; disease severity and survival (in words) [5]: developed severe disease and died; onset of disease [5]: 4 days; extent of inhibition of IFNg production [7]: only partial inhibition
IbTx: BKCa channel inhibitor peptide, purchased from Bachem (QFTDVDCSVSKECWSVCKDLFGVDRGKCMGKKCRCYQ; Definition of Artificial Sequence: Synthetic peptide)	no significant activity	no significant activity	no significant activity	no significant activity		
Fc-L10-OSK1[E16K,K20D]: Fc-L10 fusion of OSK1 with E16K and K20D substitutions (GVIINVKCKISRQCL[hArg]PCKDAGMRFGKCMNGKCACGGG; cysteine pairing not given here; also: Fc-L10 fusion)					403	fold difference in Kv1.3 potency compared to Fc-L10-OSK1 (human Kv1.3 [1]): 1.3 fold
Fc-L10-ShK[1-35]: Fc region of human IgG1 fused via L10 linker to Kv1.3 inhibitor peptide ShK[1-35]	suppressed	suppressed				extent of inhibition of IFNγ production [3]: complete inhibition; response in enzyme-immunoassay on fixed HEK 293 cells stably transfected with human Kv1.3 (human Kv1.3 [10]): dose-dependent increase in response; extent of inhibition of IFNg production [7]: nearly complete inhibition; inhibition of T cell proliferation [11]: potently inhibits proliferation of T cells in a dose-dependent manner; binding to Kv1.3 overexpressing versus untransfected HEK 293 cells (human Kv1.3 [12]): binds to Kv1.3 overexpressing HEK 293 cells but shows little binding to untransfected cells
Fc-L10-OSK1[K7S,E16K,K20D]: Fc-L10 fusion of OSK1 with K7S, E16K and K20D substitutions					12	
Fc-L10-OSK1[K7S]: Fc-L10 fusion of OSK1 with lysine to serine at position 7					269	
Fc-L10-ShK[2-35]: human IgG1 Fc fused via 10 amino acid linker to ShK[2-35]			suppressed	suppressed		
